Results published in PMC5607274, “An iterative compound screening contest method for identifying target protein inhibitors using the tyrosine-protein kinase Yes” (Scientific Reports, 2017).

Target: T1, human recombinant Yes [a.a. 2–543 (end)] (Homo sapiens, UniProt P07947)
T1 construct: human recombinant Yes [a.a; 2–543 (end)]; purchased BPS Bioscience 40488
Assay: ADP-Glo kinase assay, inhibition rates of Yes phosphorylation activity (first and second screening)
Format: biochemical
Conditions: 10 μmol L−1 compound; for First screening IR (inhibition rate): mean of n = 4 wells; for Second screening IR (inhibition rate): dissolved from fresh powder, n = 4
How it was run: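 ADP-Glo luminescence measured inhibition of human recombinant Yes (a.a. 2–543) phosphorylation activity. In the first screen, each compound ran in 4 wells and inhibition rates were averaged. The second screen retested hits as compounds dissolved from fresh powder.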

T1 sequence (P07947 2-543): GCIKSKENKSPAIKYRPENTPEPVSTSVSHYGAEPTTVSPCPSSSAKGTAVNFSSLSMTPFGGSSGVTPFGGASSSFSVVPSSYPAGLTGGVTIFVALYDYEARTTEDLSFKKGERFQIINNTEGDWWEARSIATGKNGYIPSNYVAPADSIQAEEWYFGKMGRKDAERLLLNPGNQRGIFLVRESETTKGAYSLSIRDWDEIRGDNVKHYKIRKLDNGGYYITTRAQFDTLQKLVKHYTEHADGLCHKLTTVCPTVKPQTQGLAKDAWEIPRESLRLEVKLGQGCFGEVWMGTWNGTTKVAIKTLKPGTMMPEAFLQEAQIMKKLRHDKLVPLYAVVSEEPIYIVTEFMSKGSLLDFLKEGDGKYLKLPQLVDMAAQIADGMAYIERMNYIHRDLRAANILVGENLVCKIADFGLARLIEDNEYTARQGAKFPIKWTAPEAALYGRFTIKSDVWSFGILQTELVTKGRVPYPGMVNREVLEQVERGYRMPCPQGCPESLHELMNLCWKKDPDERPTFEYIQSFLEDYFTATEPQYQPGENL

SMILES | First screening IR (inhibition rate) [%] | Second screening IR (inhibition rate) [%]
Cc1nc2cc(NC(=O)c3cc(C)n(-c4cccnc4)c3C)ccc2o1 [Compound Z395169542] | 6 | 
O=C(/C=C/c1ccc(Br)o1)Nc1ccc(S(=O)(=O)C2CCCC2)cc1 [Compound Z364474850] | 0 | 
CC(C)S(=O)(=O)CCS(=O)(=O)c1cccc(Br)c1 [Compound Z1347351377] | -2 | 
Cc1nc(C2CCCN(C(=O)c3cncc(-c4ccc5c(c4)CCO5)c3)C2)n[nH]1 (centres unmarked) [Compound Z1464424071] | -4 | 
Cc1cc(NCc2cn3cccnc3n2)c(C(N)=O)cc1F [Compound Z1430011273] | 12 | 
O=C1CCCCCN1CCCNC(=O)N1CCN(S(=O)(=O)c2c(Cl)cccc2Cl)CC1 [Compound Z183473124] | -3 | 
CNc1snc(C)c1C(=O)N1CCC(Oc2ccc(Cl)c(Cl)c2)C1 (centres unmarked) [Compound Z1417711005] | -7 | 
CN(C)C(=O)c1ccc(Cl)c(NC(=O)N2CCc3ccccc3C2)c1 [Compound Z413336660] | 5 | 
COc1cc(NC(=O)Cc2c(C)[nH]c3ccccc23)c(C(N)=O)cc1OC [Compound Z917537988] | -25 | 
COc1ccc(-c2cc(-c3cc4ccccc4o3)nc3c2cnn3C(C)C)cc1 [Compound Z94751514] | 3 | 
CCN(C(=O)CN(C)CC(=O)Nc1ccc(Cl)cc1)c1cccc2ccccc12 [Compound Z46378572] | 33 | 
COc1ccc(NC(=O)c2c(Nc3ccc(OC(F)F)cc3)sc(C(=O)Nc3ccc4c(c3)OCO4)c2N)cc1Cl [Compound Z56918070] | 16 | 
O=C(/C=C/c1cccs1)Nc1cc(-c2cccc([N+](=O)[O-])c2)sc1C(=O)O [Compound Z204342158] | 58 | -7
Cc1cccc(C)c1N=C1SC(C(=O)Nc2ccc(OC(F)F)cc2)C(N)=C1C(=O)N1CCN(C)CC1 (centres unmarked) [Compound Z56863426] | 15 | 
Cc1cc(C(=O)CCC(=O)Nc2nc3c(s2)CN(C)CC3)c(C)s1 [Compound Z169940730] | 5 | 
Cl.Fc1ccc(-c2cc(-c3ccccc3)c3ccccc3n2)cc1 [Compound Z48951014] | 18 | 
COC(=O)c1cc(-c2ccccc2F)nc2c1cnn2C(C)C [Compound Z91043804] | -6 | 
Cc1ccc(S(=O)(=O)N(C)C2(C)CCS(=O)(=O)C2)cc1C (centres unmarked) [Compound Z150918412] | 9 | 
Nc1ncnc(Nc2ccc(Br)cc2)n1 [Compound Z56786772] | 24 | 
COC1CCC(N(C)c2ncc(C(=O)N3CCOCC3)cc2Cl)CC1 (centres unmarked) [Compound Z1212734184] | -2 | 
CCN(C1CCS(=O)(=O)C1)S(C)(=O)=O (centres unmarked) [Compound Z133704180] | 8 | 
CC(C)c1cccc(NC(=O)CN(C)CC(=O)N2c3ccccc3NC(=O)CC2C)c1 (centres unmarked) [Compound Z203963094] | -10 | 
CN(C(=O)c1ccc2c(c1)CC(c1ccccc1)OC2=O)c1nc2ccccc2s1 (centres unmarked) [Compound Z238298390] | -4 | 
Fc1cc(NCc2cn[nH]c2-c2cccnc2)ccc1-n1ccnc1 [Compound Z1462562385] | 10 | 

SMILES | First screening IR (inhibition rate) [%] | Second screening IR (inhibition rate) [%]
CCCN(S(=O)(=O)c1ccc(C)cc1)S(=O)(=O)c1ccc(Cl)cc1 [Compound Z45422005] | 3 | 
O=C(Nc1cc(-c2ccc(Br)s2)[nH]n1)c1ccc2c(c1)COC2 [Compound Z956276516] | 68 | 
CN(C)c1ccc(/C=c2/s/c(=C/C(=O)C(C)(C)C)[nH]c2=O)cc1 [Compound Z46615661] | -8 | 
CC(C)(C)C1CCC(C(=O)Nc2nc(-c3ccccn3)cs2)CC1 (centres unmarked) [Compound Z29467784] | 7 | 
O=S1(=O)CC(S(=O)(=O)c2ccccc2)C(S(=O)(=O)c2ccccc2)C1 (centres unmarked) [Compound Z56757817] | 15 | 
Cc1noc(C(C)NC(=O)C2CSCN2C(=O)c2ccccc2)n1 (centres unmarked) [Compound Z954394146] | -12 | 
Cc1nn(C(C)(C)C)c2nc(C3CC3)cc(C(=O)NC(C)C)c12 [Compound Z441582602] | -6 | 
CC(C)C(C)NC(=O)C1CCN(Cc2ccc(C#N)cc2)CC1 (centres unmarked) [Compound Z975048678] | 5 | 
COc1cc(/C=N/NC(=O)c2cccnc2)ccc1OC(=O)c1cccnc1 [Compound Z49575448] | 10 | 
O=C(NCCCn1ccnc1)C1CCN(C(=O)c2ccc(F)cc2)CC1 [Compound Z30216742] | 41 | 
COc1ccc(S(=O)(=O)N[C@@H](C)C(=O)N2CC=C(c3c(OC)cc(OC)cc3OC)CC2)cc1 [Compound Z203177000] | 0 | 
Cc1oc2cc(OCC(=O)N(C)C3CCS(=O)(=O)C3)ccc2c(=O)c1-c1c(F)cccc1Cl (centres unmarked) [Compound Z25645184] | -1 | 
CC(SCc1nc(N)nc(N(C)C)n1)C(=O)Nc1ccc2c(c1)CCC2 (centres unmarked) [Compound Z197454542] | 5 | 
CCOC(=O)N(C)c1ccc(Nc2nccc(C(F)(F)F)n2)cc1 [Compound Z805455424] | -19 | 
Cc1nc(-c2ccc(CNC(=O)Cc3cccc(F)c3)o2)cs1 [Compound Z164951688] | -7 | 
CCn1c(CSc2nnc(-c3sc(C)nc3C)o2)nc2cc(S(=O)(=O)N(C)C)ccc21 [Compound Z275500628] | 49 | 
FC(F)(F)c1ccnc(Nc2ccc3nc(N4CCCC4)sc3c2)n1 [Compound Z318995726] | 22 | 
NC(=O)C1CCN(C(=O)CNc2cc(Cl)ccc2Sc2ccc(F)cc2)CC1 [Compound Z140497072] | -9 | 
Cc1ccc(Nc2nccc(C(F)(F)F)n2)cc1S(=O)(=O)N(C)C [Compound Z318799754] | 6 | 
CC(=O)Nc1ccc(/C=C2/CCCc3c2nc2ccccc2c3C(=O)O)cc1 [Compound Z46035730] | 5 | 
O=C(OCCc1cn[nH]c1)c1ncoc1-c1ccco1 [Compound Z1463415737] | 57 | 
Clc1ccc(/C=C2/CCCc3c2nc2ncnn2c3-c2ccc(Cl)cc2)cc1 [Compound Z56784275] | -10 | 
CN(c1ccc(NC(=O)N2CCN(C(=O)c3cccnc3)CC2)cc1F)C1CCCCC1 [Compound Z595406192] | 2 | 

The remaining lines, values ahead:

First screening IR (inhibition rate) [%] | Second screening IR (inhibition rate) [%] | SMILES
64 | 37 | COc1cc(C)c(Sc2cnc(NC(=O)c3ccc(CCl)cc3)s2)cc1C(=O)N1CCN(C(C)=O)CC1 [Compound Z168829182]
-6 |  | CCN(CC(=O)N1N=C(c2ccc(OC)cc2)CC1c1ccco1)Cc1nc2ccccc2c(=O)[nH]1 (centres unmarked) [Compound Z46301463]
2 |  | Cc1ccc(Cn2c(=O)c3ccccc3n3c(CCC(=O)NCCCN4CCOCC4)nnc23)cc1 [Compound Z1169067737]
14 |  | Cc1noc(C)c1COc1cccc(C(=O)N2CCN(Cc3cc(=O)n4ccsc4n3)CC2)c1 [Compound Z147054608]
11 |  | CCn1ncc2c(C(=O)OC)cc(-c3ccccc3)nc21 [Compound Z90171664]
18 |  | Cc1ccccc1Nc1nc(N)nc(CSCC(=O)N2CCCCC2)n1 [Compound Z45354084]
9 |  | CCCCn1c(CN2CCN(c3ncccn3)CC2)nc2c1c(=O)[nH]c(=O)n2Cc1ccccc1 [Compound Z104925552]
2 |  | CCOC(=O)c1c(Nc2nc3ccccc3nc2N2CCN(Cc3ccccc3)CC2)sc(C)c1C [Compound Z56866112]
48 |  | CC1CCN(c2nc(N)nc3nc[nH]c23)CCN1Cc1ccccc1 (centres unmarked) [Compound Z1675288656]
-11 |  | Cc1c(C(=O)Nc2ccc3c(ccn3CCN3CCOCC3)c2)nnn1-c1ccc(F)cc1 [Compound Z961847812]
50 |  | CC(=O)NCCNC(=O)c1cc(-c2ccccc2)nc2c1cnn2Cc1ccccc1Cl [Compound Z228081748]
5 |  | CC(NC(=O)Cn1nc(-c2ccccc2)ccc1=O)c1nc2ccccc2[nH]1 (centres unmarked) [Compound Z647256318]
-11 |  | CCN(C(=O)c1cc(-c2ccccc2)nc2c1cnn2Cc1cccnc1)c1ccccc1 [Compound Z238053762]
39 | 28 | NC(=O)c1cc(-c2csc(NCc3ccccc3)n2)ccc1O [Compound Z48850058]
11 |  | O=C(NCc1ccccc1)Nc1ccc2oc(C3CC3)nc2c1 [Compound Z369933958]
20 |  | O=C(Nc1ccccc1OC(F)F)c1ccc2c(c1)C(=O)N(Cc1ccncc1)C2=O [Compound Z27081729]
9 |  | CCN(CC)c1ccc([N+](=O)[O-])cc1C(=O)Nc1ccc2nc(N3CCOCC3)sc2c1 [Compound Z70970124]
5 |  | CCN1C/C(=C/c2ccc(F)cc2)c2nc3ccccc3c(C(=O)O)c2C1 [Compound Z46146538]
4 |  | Cc1ccc(-c2nn3c(=O)c4c5c(sc4nc3c3ccccc23)CCCC5)cc1 [Compound Z55163996]
13 |  | O=C(O)c1cc(-c2cccnc2)nc2c1cnn2Cc1cccnc1 [Compound Z98638708]
-8 |  | CCOC(=O)c1[nH]c(C)c(C(=O)CSc2n[nH]c(-c3ccccc3)n2)c1C [Compound Z225443610]
